Source: ChEMBL document CHEMBL5236632, “Membrane-Active Nonivamide Derivatives as Effective Broad-Spectrum Antimicrobials: Rational Design, Synthesis, and Biological Evaluation” (J Med Chem, 2022)
≈ marks a conversion by molar mass, not a printed value. Calls of active or inactive are those of the source. The rule behind the calls is not given here.

Experiments:
[1] = Selectivity ratio, HC50 for hemolytic activity in rabbit RBC to MIC for antibacterial activity against Klebsiella pneumoniae ATCC 10031; type: toxicity; conditions: rabbit red blood cells
Escherichia coli [2] = assay: Antibacterial activity against Escherichia coli ATCC 25922 assessed as reduction in bacterial load at 8 time of MIC measured with in 30 mins by time kill assay; type: functional; conditions: 0.5 h
Staphylococcus aureus [3] = assay: Antibacterial activity against methicillin-resistant Staphylococcus aureus N315 assessed as inhibition of visible growth measured after 18 to 24 hrs in presence of 100 ug/ml Ca2+ by broth dilution method; type: functional; conditions: time 18-24 hrs
Cell membrane = assay: Induction of membrane integrity disruption in Escherichia coli ATCC 25922 assessed as increase fluoresence intensity at 4 to 8 times of MIC measured for 60 mins by SYTOX Green uptake assay; type: subcellular
Klebsiella pneumoniae [4] = assay: Antibacterial activity against Klebsiella pneumoniae ATCC 14581 assessed as inhibition of visible growth measured after 18 to 24 hrs by broth dilution method; type: functional; conditions: time 18-24 hrs
Staphylococcus aureus [5] = assay: Antibacterial activity against Staphylococcus aureus ATCC 29213 assessed as inhibition of visible growth measured after 18 to 24 hrs in presence of 100 ug/ml Ca2+ by broth dilution method; type: functional; conditions: time 18-24 hrs
Staphylococcus aureus [6] = assay: Antibacterial activity against methicillin-resistant Staphylococcus aureus N315 assessed as inhibition of visible growth measured after 18 to 24 hrs in presence of 3220 ug/ml Na+ by broth dilution method; type: functional; conditions: time 18-24 hrs
Staphylococcus aureus [7] = assay: Antibacterial activity against Staphylococcus aureus ATCC 29213 assessed as inhibition of visible growth measured after 18 to 24 hrs in presence of 3220 ug/ml Na+ by broth dilution method; type: functional; conditions: time 18-24 hrs
Staphylococcus aureus [8] = assay: Antibacterial activity against methicillin-resistant Staphylococcus aureus NCTC 10442 assessed as inhibition of visible growth measured after 18 to 24 hrs in presence of 175.5 ug/ml K+ by broth dilution method; type: functional; conditions: time 18-24 hrs
Staphylococcus aureus [9] = assay: Eradication of biofilm in Staphylococcus aureus ATCC 29213 assessed as biofilm viability at […] ug/ml measured after 24 hrs by crystal violet staining assay; type: functional; conditions: dose […] microg/ml, 1.56 ug/mL
Staphylococcus aureus [10] = assay: Antibacterial activity against methicillin-resistant Staphylococcus aureus N315 assessed as inhibition of visible growth measured after 18 to 24 hrs by broth dilution method; type: functional; conditions: time 18-24 hrs
Escherichia coli [11] = assay: Drug resistance development in Escherichia coli ATCC 25922 assessed as fold change in MIC measured after 20 passages; type: functional
[12] = Selectivity ratio, HC50 for hemolytic activity in rabbit RBC to MIC for antibacterial activity against Acinetobacter baumannii ATCC 17978; type: toxicity; conditions: rabbit red blood cells
Staphylococcus aureus [13] = assay: Antibacterial activity against Staphylococcus aureus ATCC 29213 assessed as inhibition of visible growth measured after 18 to 24 hrs in presence of 175.5 ug/ml K+ by broth dilution method; type: functional; conditions: time 18-24 hrs
Klebsiella pneumoniae [14] = assay: Antibacterial activity against Klebsiella pneumoniae ATCC 10031 assessed as inhibition of visible growth measured after 18 to 24 hrs in presence of 175.5 ug/ml K+ by broth dilution method; type: functional; conditions: time 18-24 hrs
[15] = Haemolytic activity in rabbit red blood cells incubated for 60 mins by k multi-mode reader relative to control; type: toxicity, cell-based, Oryctolagus cuniculus, Erythrocyte
Staphylococcus aureus [16] = assay: Antibacterial activity against Staphylococcus aureus ATCC 29213 assessed as inhibition of visible growth measured after 18 to 24 hrs by broth dilution method; type: functional; conditions: time 18-24 hrs
Lipopolysaccharide (LPS) = assay: Displacement of BODIPY-TR-cadaverin from Escherichia coli lipopolysaccharide at MIC concentration incubated for 30 mins by fluorescence based analysis
Escherichia coli [17] = assay: Antibacterial activity against Escherichia coli […] assessed as inhibition of visible growth measured after 18 to 24 hrs in presence of 175.5 ug/ml K+ by broth dilution method; type: functional; conditions: time 18-24 hrs
Staphylococcus aureus [18] = assay: Inhibition of biofilm formation Staphylococcus aureus ATCC 29213 assessed as decrease in biofilm formation at 0.20 ug/ml measured after 24 hrs by crystal violet staining assay; type: functional
[19] = Selectivity ratio, HC50 for hemolytic activity in rabbit RBC to MIC for antibacterial activity against Acinetobacter baumannii R2889; type: toxicity; conditions: rabbit red blood cells
Escherichia coli [20] = assay: Antibacterial activity against Escherichia coli […] assessed as inhibition of visible growth measured after 18 to 24 hrs in presence of 100 ug/ml Ca2+ by broth dilution method; type: functional; conditions: time 18-24 hrs
Staphylococcus aureus [21] = assay: Eradication of biofilm in Staphylococcus aureus ATCC 29213 assessed as biofilm viability at 0.39 ug/ml measured after 24 hrs by crystal violet staining assay; type: functional; conditions: dose 0.39 µg/ml
Klebsiella pneumoniae [22] = assay: Antibacterial activity against Klebsiella pneumoniae ATCC 10031 assessed as inhibition of visible growth measured after 18 to 24 hrs by broth dilution method; type: functional; conditions: time 18-24 hrs
Klebsiella pneumoniae [23] = assay: Antibacterial activity against Klebsiella pneumoniae ATCC 10031 assessed as inhibition of visible growth measured after 18 to 24 hrs in presence of 3220 ug/ml Na+ by broth dilution method; type: functional; conditions: time 18-24 hrs
Escherichia coli [24] = assay: Eradication of biofilm in Escherichia coli ATCC 25922 assessed as biofilm viability at 3.13 ug/ml measured after 24 hrs by crystal violet staining assay; type: functional; conditions: dose 3.13 µg/ml
Staphylococcus aureus [25] = assay: Antibacterial activity against Staphylococcus aureus ATCC 29213 assessed as fold increase in MIC measured after 18 to 24 hrs in presence of 512 ug/ml LTA/LPS by broth dilution method; type: functional; conditions: time 18-24 hrs
Staphylococcus aureus [26] = assay: Drug resistance development in Staphylococcus aureus ATCC 29213 assessed as fold change in MIC measured after 20 passages; type: functional
Escherichia coli [27] = assay: Antibacterial activity against Escherichia coli […] assessed as inhibition of visible growth measured after 18 to 24 hrs in presence of 3220 ug/ml Na+ by broth dilution method; type: functional; conditions: time 18-24 hrs
Escherichia coli [28] = assay: Eradication of biofilm in Escherichia coli ATCC 25922 assessed as biofilm viability at 12.5 ug/ml measured after 24 hrs by crystal violet staining assay; type: functional; conditions: dose 12.5 µg/ml
Escherichia coli [29] = assay: Antibacterial activity against Escherichia coli ATCC 25922 assessed as fold increase in MIC measured after 18 to 24 hrs in presence of 512 ug/ml LTA/LPS by broth dilution method; type: functional; conditions: time 18-24 hrs
Escherichia coli [30] = assay: Antibacterial activity against Escherichia coli ATCC 25922 assessed as bacterial regrowth at 8 time of MIC measured after 24 hrs by time kill assay; type: functional, organism-based
[31] = Selectivity ratio, HC50 for hemolytic activity in rabbit RBC to MIC for antibacterial activity against Pseudomonas aeruginosa ATCC 9027; type: toxicity; conditions: rabbit red blood cells
[32] = Toxicity in C57BL/6 mouse cornea assessed as toxicity at 5 mg/ml treated topically; type: tissue-based; conditions: in vivo, topical_or_ocular, route top
Staphylococcus aureus [33] = assay: Eradication of biofilm in Staphylococcus aureus ATCC 29213 assessed as biofilm viability at 3.13 ug/ml measured after 24 hrs by crystal violet staining assay; type: functional; conditions: dose 3.13 µg/ml
Pseudomonas aeruginosa = assay: In vivo antibacterial activity against Pseudomonas aeruginosa ATCC 9027 infected in C57BL/6 mouse keratitis model assessed as reduction in number of viable bacterial colonies in infected cornea at 5 mg/kg topically 4 times per day for 3 consecutive days; type: functional; conditions: route top, time 3 day

## CCCCCCCCC(=O)NCc1ccc(OCCCCCCNC(=N)N)c(OCCCCCCNC(=N)N)c1
[1]
  selectivity ratio: 21.6
Escherichia coli [2]
  Activity: 4.56 log10CFU/ml
Staphylococcus aureus [3]
  MIC: 0.39 µg/mL
Cell membrane
  Activity: Active
Klebsiella pneumoniae [4]
  MIC: 1.56 µg/mL (≈ 2.78 µM)
Staphylococcus aureus [5]
  MIC: 0.39 µg/mL
Staphylococcus aureus [6]
  MIC: 0.39 µg/mL
Staphylococcus aureus [7]
  MIC: 0.39 µg/mL
Staphylococcus aureus [8]
  MIC: 0.39 µg/mL
Staphylococcus aureus [9]
  Activity: 36.07%
Staphylococcus aureus [10]
  MIC: 0.39 µg/mL (≈ 0.694 µM)
Escherichia coli [11]
  fold change (FC): <4
[12]
  selectivity ratio: 21.6
Staphylococcus aureus [13]
  MIC: 0.39 µg/mL
Klebsiella pneumoniae [14]
  MIC: 0.78 µg/mL
[15]; erythrocyte, 1 h
  HC5: 64.3 µg/mL
[15]; rabbit red blood cells
  HC50 at 1 h: 135 µg/mL
Staphylococcus aureus [16]
  MIC: 0.78 µg/mL (≈ 1.39 µM)
Lipopolysaccharide (LPS)
  Activity: 56.4%
Escherichia coli [17]
  MIC: 1.56 µg/mL
Staphylococcus aureus [18]
  inhibition at 0.2 µg/mL: 62.3%
[19]
  selectivity ratio: 21.6
Escherichia coli [20]
  MIC: 3.12 µg/mL
Staphylococcus aureus [21]
  Activity: 73.22%
Klebsiella pneumoniae [22]
  MIC: 1.56 µg/mL (≈ 2.78 µM)
Klebsiella pneumoniae [23]
  MIC: 1.56 µg/mL
Escherichia coli [24]
  Activity: 38.07%
Staphylococcus aureus [25]
  fold change (FC): 8
Staphylococcus aureus [26]
  fold change (FC): <4
Escherichia coli [27]
  MIC: 1.56 µg/mL
Escherichia coli [28]
  Activity: 15.04%
Escherichia coli [29]
  fold change (FC): 16
Escherichia coli [30]
  Activity: Active
[31]
  selectivity ratio: 21.6
[32]
  Activity: Non-Toxic
Staphylococcus aureus [33]
  Activity: 14%
Pseudomonas aeruginosa
  Activity: 4.69 log10CFU/ml
